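A five-concentration, 48-hour dose response in 96-well plates underlies each endpoint, interpolated linearly between surrounding concentrations. GI50 = concentration required for 50% inhibition of growth.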 Active and inactive are the calls of the source. No stated cut-off is given here; in the data, active = GI50 up to about 1.1 µM and inactive = higher.
Legend:
Assay in all cases: NCI-60 cell line screen, 48 h
MDA-MB-231 = test system: MDA-MB-231
SW-620 = test system: SW-620
MOLT-4 = test system: MOLT-4
MDA-MB-435 = test system: MDA-MB-435
786-0 = test system: 786-0
LOX IMVI = test system: LOX IMVI
HCT-116 = test system: HCT-116
BT-549 = test system: BT-549
SK-OV-3 = test system: SK-OV-3
SNB-19 = test system: SNB-19
SN12C = test system: SN12C
SK-MEL-28 = test system: SK-MEL-28
IGROV-1 = test system: IGROV-1
M14 = test system: M14
CAKI-1 = test system: CAKI-1
UACC-62 = test system: UACC-62
U-251 = test system: U-251
HT-29 = test system: HT-29
DU-145 = test system: DU-145
RXF 393 = test system: RXF 393

SMILES	GI50 (MDA-MB-231)	GI50 (SW-620)	GI50 (MOLT-4)	GI50 (MDA-MB-435)	GI50 (786-0)	GI50 (LOX IMVI)	GI50 (HCT-116)	GI50 (BT-549)	GI50 (SK-OV-3)	GI50 (SNB-19)	GI50 (SN12C)	GI50 (SK-MEL-28)	GI50 (IGROV-1)	GI50 (M14)	GI50 (CAKI-1)	GI50 (UACC-62)	GI50 (U-251)	GI50 (HT-29)	GI50 (DU-145)	GI50 (RXF 393)
Cc1csc2nc3[nH]ncc3c(=O)n12	> 100 µM (inactive)	> 100 µM (inactive)	> 100 µM (inactive)	> 100 µM (inactive)	> 100 µM (inactive)	> 100 µM (inactive)	> 100 µM (inactive)	> 100 µM (inactive)	> 100 µM (inactive)	> 100 µM (inactive)	> 100 µM (inactive)	> 100 µM (inactive)	> 100 µM (inactive)	> 100 µM (inactive)	> 100 µM (inactive)	> 100 µM (inactive)	> 100 µM (inactive)	> 100 µM (inactive)	–	–
CCOC(=O)C(CS)NC(=O)CCCCCCCC(=O)NC(CS)C(=O)OCC (centres undefined)	> 100 µM (inactive)	> 100 µM (inactive)	32.4 µM (inactive)	> 100 µM (inactive)	> 100 µM (inactive)	86.9 µM (inactive)	> 100 µM (inactive)	> 100 µM (inactive)	> 100 µM (inactive)	37.4 µM (inactive)	> 100 µM (inactive)	> 100 µM (inactive)	> 100 µM (inactive)	> 100 µM (inactive)	> 100 µM (inactive)	> 100 µM (inactive)	> 100 µM (inactive)	> 100 µM (inactive)	> 100 µM (inactive)	–
CC1CCC(C(C)C2C(O)CC3C4CC=C5CC(O)CCC5(C)C4CCC32C)NC1 (centres undefined)	24.7 µM (inactive)	31.7 µM (inactive)	8.38 µM (inactive)	30.9 µM (inactive)	32.2 µM (inactive)	21.3 µM (inactive)	45.3 µM (inactive)	> 100 µM (inactive)	> 100 µM (inactive)	25.7 µM (inactive)	20.3 µM (inactive)	> 100 µM (inactive)	–	> 100 µM (inactive)	–	49.5 µM (inactive)	24.4 µM (inactive)	43.1 µM (inactive)	69.8 µM (inactive)	65 µM (inactive)
Cc1nn(C2OC(CO)C(O)C(F)C2O)c(=O)[nH]c1=O (centres undefined)	> 100 µM (inactive)	> 100 µM (inactive)	0.504 µM (active)	> 100 µM (inactive)	> 100 µM (inactive)	> 100 µM (inactive)	> 100 µM (inactive)	> 100 µM (inactive)	> 100 µM (inactive)	> 100 µM (inactive)	> 100 µM (inactive)	> 100 µM (inactive)	–	> 100 µM (inactive)	> 100 µM (inactive)	> 100 µM (inactive)	> 100 µM (inactive)	> 100 µM (inactive)	> 100 µM (inactive)	–
CCn1c(SCC(=O)NNC(=S)Nc2ccc(C)cc2)nc2ccccc2c1=O	> 100 µM (inactive)	> 100 µM (inactive)	27.1 µM (inactive)	> 100 µM (inactive)	> 100 µM (inactive)	> 100 µM (inactive)	> 100 µM (inactive)	> 100 µM (inactive)	> 100 µM (inactive)	> 100 µM (inactive)	> 100 µM (inactive)	> 100 µM (inactive)	> 100 µM (inactive)	> 100 µM (inactive)	–	> 100 µM (inactive)	> 100 µM (inactive)	> 100 µM (inactive)	> 100 µM (inactive)	> 100 µM (inactive)
CCCCNC(=S)N/C=C1\C(=O)Nc2ccccc2C1=O	> 10 µM (inactive)	> 10 µM (inactive)	> 10 µM (inactive)	> 10 µM (inactive)	> 10 µM (inactive)	–	–	> 10 µM (inactive)	–	> 10 µM (inactive)	> 10 µM (inactive)	> 10 µM (inactive)	> 10 µM (inactive)	> 10 µM (inactive)	> 10 µM (inactive)	> 10 µM (inactive)	> 10 µM (inactive)	> 10 µM (inactive)	–	> 10 µM (inactive)
CON(C)C(=O)[C@H]1C[C@@]1(C)CO	> 100 µM (inactive)	> 100 µM (inactive)	> 100 µM (inactive)	> 100 µM (inactive)	> 100 µM (inactive)	–	> 100 µM (inactive)	> 100 µM (inactive)	> 100 µM (inactive)	> 100 µM (inactive)	> 100 µM (inactive)	> 100 µM (inactive)	> 100 µM (inactive)	> 100 µM (inactive)	> 100 µM (inactive)	> 100 µM (inactive)	> 100 µM (inactive)	> 100 µM (inactive)	> 100 µM (inactive)	> 100 µM (inactive)
C[n+]1c(-c2ccc(/C=N\NC(=O)c3ccc(C(=O)N/N=C/c4ccc(-c5cn6ccsc6[n+]5C)cc4)cc3)cc2)cn2ccsc21	21.4 µM (inactive)	18.5 µM (inactive)	15.2 µM (inactive)	15.8 µM (inactive)	16.6 µM (inactive)	–	–	16.5 µM (inactive)	46.5 µM (inactive)	24.6 µM (inactive)	19.4 µM (inactive)	–	20 µM (inactive)	17.8 µM (inactive)	18.7 µM (inactive)	20 µM (inactive)	25.6 µM (inactive)	15.8 µM (inactive)	18.5 µM (inactive)	22.8 µM (inactive)
CCOC(=O)c1[nH]c2cccc3c2c1CC(Br)C3=O (centres undefined)	18.5 µM (inactive)	2.34 µM (inactive)	2.71 µM (inactive)	11.7 µM (inactive)	4.72 µM (inactive)	15.7 µM (inactive)	2.48 µM (inactive)	16.9 µM (inactive)	22.7 µM (inactive)	15.7 µM (inactive)	16.7 µM (inactive)	20 µM (inactive)	5.86 µM (inactive)	13.4 µM (inactive)	11.2 µM (inactive)	–	14.9 µM (inactive)	20 µM (inactive)	16.1 µM (inactive)	–
O=C1c2ccccc2-c2[nH]c3cn[nH]c(=O)c3c21	97.5 µM (inactive)	> 100 µM (inactive)	> 100 µM (inactive)	48.6 µM (inactive)	> 100 µM (inactive)	78.5 µM (inactive)	38.6 µM (inactive)	> 100 µM (inactive)	> 100 µM (inactive)	> 100 µM (inactive)	> 100 µM (inactive)	–	23.1 µM (inactive)	> 100 µM (inactive)	91.6 µM (inactive)	45.3 µM (inactive)	> 100 µM (inactive)	> 100 µM (inactive)	> 100 µM (inactive)	–
O=C1C(Cl)=C(Cl)C(Cl)(Cl)C(Cl)C1(Cl)Cl (centres undefined)	20 µM (inactive)	22 µM (inactive)	–	23.1 µM (inactive)	37.8 µM (inactive)	19.4 µM (inactive)	18.8 µM (inactive)	19.7 µM (inactive)	26.2 µM (inactive)	22.4 µM (inactive)	20 µM (inactive)	23.5 µM (inactive)	17 µM (inactive)	25.6 µM (inactive)	–	16.7 µM (inactive)	19 µM (inactive)	24.5 µM (inactive)	27.4 µM (inactive)	20 µM (inactive)
Cc1nc2ccccc2n1Cc1nnc(-c2ccccc2)o1	> 100 µM (inactive)	90.2 µM (inactive)	41.8 µM (inactive)	0.104 µM (active)	38.7 µM (inactive)	25.1 µM (inactive)	46.2 µM (inactive)	> 100 µM (inactive)	> 100 µM (inactive)	> 100 µM (inactive)	> 100 µM (inactive)	> 100 µM (inactive)	72.9 µM (inactive)	> 100 µM (inactive)	–	> 100 µM (inactive)	> 100 µM (inactive)	52.5 µM (inactive)	> 100 µM (inactive)	35.9 µM (inactive)
Cc1c(S(=O)(=O)c2ccccc2)c(N)n(Cc2ccccc2)c1C	> 100 µM (inactive)	> 100 µM (inactive)	> 100 µM (inactive)	> 100 µM (inactive)	> 100 µM (inactive)	–	> 100 µM (inactive)	> 100 µM (inactive)	> 100 µM (inactive)	> 100 µM (inactive)	> 100 µM (inactive)	> 100 µM (inactive)	> 100 µM (inactive)	7.08 µM (inactive)	> 100 µM (inactive)	> 100 µM (inactive)	> 100 µM (inactive)	> 100 µM (inactive)	> 100 µM (inactive)	76.6 µM (inactive)
CC1(C)CC(O)C(C)(C)[C@@H](O)C1 (some centres undefined)	> 100 µM (inactive)	> 100 µM (inactive)	> 100 µM (inactive)	–	> 100 µM (inactive)	> 100 µM (inactive)	> 100 µM (inactive)	> 100 µM (inactive)	> 100 µM (inactive)	> 100 µM (inactive)	> 100 µM (inactive)	> 100 µM (inactive)	> 100 µM (inactive)	> 100 µM (inactive)	> 100 µM (inactive)	> 100 µM (inactive)	> 100 µM (inactive)	> 100 µM (inactive)	> 100 µM (inactive)	28.7 µM (inactive)
CC(C)(C)OC(=O)N1CC(COS(C)(=O)=O)c2ccc(O)cc21 (centres undefined)	2.77 µM (inactive)	2.1 µM (inactive)	0.443 µM (active)	1.8 µM (inactive)	2.59 µM (inactive)	–	1.95 µM (inactive)	1.52 µM (inactive)	3.15 µM (inactive)	2.7 µM (inactive)	2.25 µM (inactive)	2.14 µM (inactive)	2.84 µM (inactive)	1.72 µM (inactive)	2.42 µM (inactive)	1.73 µM (inactive)	2.51 µM (inactive)	3.21 µM (inactive)	0.507 µM (active)	0.288 µM (active)

Source: ChEMBL document CHEMBL1201862, “PubChem BioAssay data set” (2004)
